US20160016989A1, “Synthetic Polymers Containing Amino Acid Side Chains” (CHIMEROCHEM LLC, priority 2013, published 2016)

How the values were obtained:
[1] = test system: Histidine specific antibody (polyclonal IgG ab6442 from ABCAM); experiment: Native polyacrylamide gel shift with Histidine specific antibody; assay type: binding; settings: native 12% polyacrylamide gel; compared to 20-mer polydT controls
Description: Example using monomer to produce a H-tag. Six His side chain monomers (H) as described in example 1 c2 are added during oligonucleotide synthesis to the 5′ position of a 20mer polydT, such that the final sequence is 5′HHH HHH TTT TTT TTT TTT TTT TTT TT3′. H is used at a concentration of 0.1M in acetonitrile for synthesis. The chimeric polymer is synthesized according to manufacturer's recommendations for the ABI Expedite synthesizer. After deprotection the H-tagged polydT was incubated with Histidine specific antibody (polyclonal IgG ab6442 from ABCAM). A control sample of 20-mer polydT was also incubated with the Histidine specific antibody. A native 12% polyacrylamide (20:1 acrylamide:bis) was loaded with 4 samples: 20-mer polydT, 20-mer polydT+Histidine specific antibody, His-tagged 20-mer polydT, His-tagged 20-mer polydT+Histidine specific antibody.

[2] = test system: VMCs from the left anterior descending, circumflex, and right coronary arteries; experiment: Calcium signal (fluo 3 fluorescence) and contractility of single coronary artery VMCs; assay type: cell-based, rhesus monkeys; settings: images at 1 minute and subsequent time points
From the text: Single VMCs from the left anterior descending, circumflex, and right coronary arteries of adult rhesus monkeys are isolated and studied both as freshly dispersed and as primary cultures. The short-term primary cultured cells (never passaged) maintain the characteristics of the source tissue for 2 to 3 weeks, including contraction, relaxation, receptors, and membrane electrical properties. VMCs are dissociated with collagenase and protease enzymes in a potassium glutamate solution (KG) that prevents loading with Na^+, Ca2^+, or Cl^− and results in a high proportion of viable, contracting cells (Miyagawa et al, Am J Physiol 272:H2645-2654, 1997; Hermsmeyer et, Art Thromb Vasc Biol, 24:955-961, 2004). […]
Freshly dispersed or primary cultured VMCs on glass coverslips are placed in a chamber of laminar flow design on an Axiovert inverted fluorescence microscope and observed with a Zeiss Plan Neofluar 25X/0.80 water immersion objective. Fluorescence intensity is measured with high sensitivity calibrated video sensor and recorded digitally via computer acquisition and management program. […] Fluorescent images are taken at 1 minute and subsequent time points from which light intensity is equated to changes in calcium signal (fluorescence) and cell contractility.

Molecule: 5′HHH HHH TTT TTT TTT TTT TTT TTT TT3′ [His-tagged 20-mer polydT]
- gel shift on addition of the Histidine specific antibody [1]: gel shift

Molecule: NC(=O)CC[C@@H]1NC(=O)[C@H](Cc2ccccc2)NC(=O)[C@H](Cc2ccc(O)cc2)NC(=O)[C@@H](N)CSSC[C@@H](C(=O)N2CCC[C@H]2C(=O)N[C@@H](CCCN=C(N)N)C(=O)NCC(N)=O)NC(=O)[C@H](CC(N)=O)NC1=O [arginine vasopressin]
- calcium signal (fluorescence) ([2]; individual VMC loaded with 3 μM fluo 3): affect
- cell contractility ([2]; individual VMC): affect
